Some test systems named below: PC-3 prostate; NCI-H522 lung; 786-0 renal; UACC-257 melanoma; KM12 colon; MOLT-4 leukemia; SNB-19 CNS; MDA-MB-435; SK-OV-3 ovarian; MCF7 breast; T-47D breast; NCI-H460 lung; HT29 colon; OVCAR-3 ovarian; HCT-15 colon; DU-145 prostate; A498 renal; UACC-62 melanoma; NCI/ADR-RES ovarian; UO-31 renal.
Common to all, as to test: NCI anticancer screen, dose series, 48 h

The structures appear in SMILES notation.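 Where inhibition never reached the appropriate level, the endpoint shown equals the highest concentration tested. Otherwise, values were interpolated linearly from a five-concentration, 48-hour dose response in 96-well plates. The concentration for full growth arrest is given as TGI.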

Regarding `N/C(=N\N=C\c1cc(I)cc(I)c1O)NO`, the TGI with PC-3 prostate, in the assay on NCI-H522 lung, in the assay with 786-0 renal, in the assay with UACC-257 melanoma, with KM12 colon and with MOLT-4 leukemia was more than 100 µM each time. Moreover, the TGI with SNB-19 CNS is more than 100 µM; in the assay on MDA-MB-435, more than 100 µM; with SK-OV-3 ovarian, more than 100 µM; with MCF7 breast, 74.7 µM; in the assay on T-47D breast it was more than 100 µM; in the assay with NCI-H460 lung, more than 100 µM. For the same compound, the TGI in the assay on HT29 colon is more than 100 µM; with OVCAR-3 ovarian, 14.6 µM; in the assay with HCT-15 colon, more than 100 µM; with DU-145 prostate, more than 100 µM; with A498 renal it was more than 100 µM; in the assay with UACC-62 melanoma, 95.5 µM. The compound further returned a TGI in the assay with NCI/ADR-RES ovarian of 8.41 µM.

As for `CC(C)CC1c2[nH]c3ccccc3c2C[C@H]2C(=O)NC(CCCCNC(=O)OC(C)(C)C)C(=O)N12` (stereo partly drawn), the TGI with PC-3 prostate is 65.5 µM; in the assay with NCI-H522 lung, 72.3 µM; in the assay with 786-0 renal, 50.7 µM; in the assay on UACC-257 melanoma, more than 100 µM; in the assay with KM12 colon, more than 100 µM; in the assay on MOLT-4 leukemia, 51.8 µM. For the same compound, the TGI in the assay with UO-31 renal was more than 100 µM; in the assay on SNB-19 CNS, more than 100 µM; with MDA-MB-435, more than 100 µM; with MCF7 breast, more than 100 µM; in the assay on T-47D breast, 16.1 µM; in the assay with HT29 colon, 64.6 µM. For the same compound, the TGI was 16.6 µM in the assay on OVCAR-3 ovarian; more than 100 µM in the assay with HCT-15 colon; more than 100 µM with DU-145 prostate; more than 100 µM in the assay with A498 renal; more than 100 µM in the assay on UACC-62 melanoma; more than 100 µM with NCI/ADR-RES ovarian.

For `O=C(Cn1c(=O)oc2ccc(C(=O)c3ccc(F)cc3)cc21)c1ccccc1`, the TGI in the assay with PC-3 prostate, in the assay on NCI-H522 lung, with 786-0 renal, in the assay on UACC-257 melanoma, in the assay with KM12 colon and in the assay with MOLT-4 leukemia was more than 100 µM throughout. The TGI with UO-31 renal, with SNB-19 CNS, in the assay on MDA-MB-435, with SK-OV-3 ovarian, with MCF7 breast and in the assay with T-47D breast was more than 100 µM throughout. Also, the TGI in the assay on NCI-H460 lung was more than 100 µM; with HT29 colon, more than 100 µM; with HCT-15 colon, more than 100 µM; in the assay on DU-145 prostate, more than 100 µM; in the assay with A498 renal it was 93.3 µM; in the assay on UACC-62 melanoma, more than 100 µM. Further, the TGI in the assay with NCI/ADR-RES ovarian was more than 100 µM.

`CCO/C(O)=C(/C(=N)N1CCCC1)C(=O)Nc1cccc(Cl)c1`: the TGI with PC-3 prostate, with NCI-H522 lung, in the assay with 786-0 renal, with UACC-257 melanoma, in the assay on KM12 colon and in the assay with MOLT-4 leukemia was more than 100 µM in each case. Also, the TGI in the assay with SNB-19 CNS, with MDA-MB-435, in the assay on SK-OV-3 ovarian, in the assay on MCF7 breast, in the assay on T-47D breast and with NCI-H460 lung was more than 100 µM throughout. In addition, the TGI in the assay with HT29 colon, in the assay on OVCAR-3 ovarian, in the assay on HCT-15 colon, with DU-145 prostate, with A498 renal and in the assay with UACC-62 melanoma was more than 100 µM throughout. The compound further yielded a TGI with NCI/ADR-RES ovarian of more than 100 µM.

As to `CCCCCCNC(=S)N/N=C(\C)c1ccccn1`, the TGI in the assay on PC-3 prostate came out at 24.1 µM; in the assay on NCI-H522 lung it was 19.8 µM; in the assay on 786-0 renal, 12.1 µM; with UACC-257 melanoma it was 15.3 µM; with KM12 colon it was 8.97 µM; in the assay with UO-31 renal, 10.9 µM. Also, the TGI in the assay on SNB-19 CNS was 21 µM; in the assay on MDA-MB-435, 17.8 µM; in the assay on SK-OV-3 ovarian, 21.6 µM; in the assay with MCF7 breast it was 19 µM; with T-47D breast it was 23.4 µM; in the assay on NCI-H460 lung, 8.81 µM. Besides, the TGI in the assay with HT29 colon worked out at 19.4 µM; with OVCAR-3 ovarian it was 21.8 µM; in the assay with HCT-15 colon it was 21.9 µM; in the assay on DU-145 prostate, 30.4 µM; with A498 renal, 14.4 µM; in the assay with UACC-62 melanoma, 6.37 µM. In the assay with NCI/ADR-RES ovarian, this compound yielded a TGI of 30.6 µM.

With `CCOC(=O)c1nc2ccccc2nc1Nc1ccc(OC)cc1`, the TGI in the assay with PC-3 prostate, with NCI-H522 lung, in the assay with 786-0 renal, in the assay on UACC-257 melanoma, in the assay on KM12 colon and with MOLT-4 leukemia was more than 100 µM in each case. Also, the TGI was more than 100 µM with UO-31 renal; 83.9 µM in the assay on SNB-19 CNS; more than 100 µM in the assay with MDA-MB-435; more than 100 µM in the assay with MCF7 breast; more than 100 µM in the assay on T-47D breast; more than 100 µM in the assay on NCI-H460 lung. For the same compound, the TGI in the assay with HT29 colon is more than 100 µM; in the assay on OVCAR-3 ovarian it was 70.4 µM; with HCT-15 colon, more than 100 µM; in the assay on DU-145 prostate, more than 100 µM; with A498 renal, 84.5 µM; in the assay on UACC-62 melanoma, 66.6 µM. This compound displayed a TGI with NCI/ADR-RES ovarian of more than 100 µM.
